The values below come from patent US6610681B1, “Neurotherapeutic clavulanate composition and method” (Revaax Pharmaceuticals, LLC, priority 1999, dated 2003).

In series [1] the test system is male Wistar rats. The series can be described thus: elevated plus-maze. The series is classed as in vivo, rat. The source says:
The elevated plus-maze was developed for screening anxiolytic and anxiogenic drug effects in the rat (Pellow et al., 1985). The method has been validated behaviorally, physiologically, and pharmacologically. The plus-maze consists of two open arms and two enclosed arms. […] Conversely, anxiogenic compounds like yohimbin or amphetamines reduce open arm entries and time spent in the open arms.
Male Wistar rats weighing 250-300 g were group housed in a normal 12:12 light-dark cycle with light on at 0800 hr and provided food and water ad libitum. The plus-maze consisted of two open arms, 50 cm long, 10 cm wide, […]. The two closed arms had the same dimensions but included a roof. The Plexiglas for the closed arms was painted black. Each pair of arms was arranged opposite to each other to form the plus-maze. The maze was elevated to a height of 50 cm. Eighteen animals were tested in the plus-maze 90 min following the IP injection of 1.0 μg/kg CLAV, 50 or vehicle control in a volume of ca. 0.3 ml. The order of treatments was counter balanced with at least 48 hrs between injections. At the start of the experiment, the animal was placed at the end of one of the open arms. Over a five min observation period, animals were scored for the latency to enter the closed arm, time spent in the closed arm and the number of open arm entries following the first occupation of the closed arm. The study produced tables of repeated measures. The data between treatments were compared with a two-way, repeated measures ANOVA followed by Bonferroni post hoc tests.
Chlordiazepoxide (Librium®) is a commonly prescribed anxiolytic that has been thoroughly characterized in preclinical studies. The effective anxiolytic dose in the plus-maze is 10-25 mg/kg (Lister 1987; File and Aranko 1988; Shumsky and Lucki 1994). […] However, it was discovered animals develop a tolerance to the motor depression with repeated daily administration of CDP for several days (Shumsky and Lucki 1994). […] While CLAV has no effect on motor activity it was necessary to treat an equal number of rats with daily injections of CLAV (100 ng/kg) to insure a balanced experimental design. In addition there was a third group of rats (n=6) receiving daily injections of saline vehicle. The study reported in Section II tested CLAV at 1 μg/kg in the plus-maze. […] For this reason CLAV was tested at 100 ng/kg in these studies.

Series [2] has as its system rats. The experiment in a line: Morris water maze, spatial navigation. The series is classed as in vivo, rat. The source says:
The Morris water maze was developed to test spatial memory (Morris, 1984). The pool is divided into quadrants usually designated North, South, East and West. The water in the pool is made opaque with milk powder. Hidden just beneath the surface in one of the quadrants is a platform that serves as a escape route for rodents placed into the pool. An animal is placed some where in the pool from a variety of different start points and is timed for latency to find the platform, percent time spent in each quadrant, distance traveled and swimming speed. The animals have no visual or spatial cues in the pool and must rely on extra-maze cues, i.e., objects set up outside the pool that can be seen by the swimming animal. Through a series of trials a rat develops “place learning” or knowledge about the position of the platform based upon the extra-maze cues. The platform can be moved to a different quadrant each day combining spatial memory with working memory. This paradigm involves extinction of the prior memory and resolution of a new spatial problem.
The water maze consisted of a black plastic circular pool ca. 150 cm in diameter and 54 cm in height filled to a level of 35 cm with water made opaque with powdered milk. The pool was divided into four quadrants with a platform 10 cm in diameter submerged 2 cm below the surface in the northwest quadrant. The water was maintained at a temperature of 25° C. Around the pool were several visual cues. Above the pool was a video camera for tracking the movement of the experimental animal. The data collection was completely automated using the software developed by HVS Image (Hampton, UK). Before testing, rats were familiarized with the pool and platform placed in the northwest quadrant. Each day for 4 consecutive days, animals were placed into pool at random sites and given two min to find the platform. […] Following these familiarization trials, animals were tested for spatial navigation. The first day of testing began with the platform in the expected northwest quadrant. All behavior was videotaped for a two min observation period. After testing the animal were dried off and placed back into their home cage. On each subsequent day the platform was moved to a new quadrant and the rat started at different positions. The rat was always placed into the pool facing the sidewall. The start positions relative to the platform were different for each of the four trials; however, the platform was always in the same relative position in each quadrant. It was positioned 20 cm in from the side of the pool and in the left corner from the center facing out. The latency to find the hidden platform, path length, swim rate, and quadrant times between CLAV and vehicle treated animals were compared with a two-way, repeated measures ANOVA followed by Bonferroni post hoc tests.

Series [3] deals with male Wistar rats. The series can be described thus: general motor activity in an open field. To be noted: 1.0 μg/kg IP, after the plus-maze test, vs vehicle. The series is classed as in vivo, rat. As to the method: Immediately after each of the plus-maze tests reported above in Section II, animals were tested for general motor activity in an “open field.” Animals were placed into a large clean Plexiglas cage (48×32×40 cm) devoid of bedding. This open field was delineated into equal quadrants by tape on the underside of the cage. Animals were scored for motor activity by counting the number of quadrants traversed in 1 min.

Series [4] relates to stress-induced release of cortisol. The series can be described thus: novelty test, stress-induced release of cortisol. The series is classed as in vivo, hamster. Particulars: 10 μg/kg IP. The method, then:
The simple procedure of placing an adult male hamster into a novel environment for 5 min causes a significant, predictable increase in blood levels of cortisol (Weinberg and Wong 1986). This novelty test was used to assess the effects of CLAV on stress-induced release of cortisol. Two groups of male hamsters were treated IP with either CLAV (10 μg/kg, n=6), or saline vehicle (n=4). A third group (n=4) received no treatment or isolation stress and served as a control for basal levels of cortisol. Sixty min after treatment animals were taken from their home cage and placed into a novel cage for 5 min. Afterwards animals were sacrificed by decapitation and trunk blood collected for radioimmunoassay of cortisol. All animals were tested under reverse light:dark conditions four hrs into the dark cycle. Data were compared with a one-way ANOVA followed by Fisher PLSD post hoc tests.

Series [5] concerns gram negative beta-lactamase enzymes. Particulars: cited from earlier work.
The conditions of series [6]: approximately 7-10 mg/kg/day, intravenous with ticarcillin; cited from earlier work.
Setting [7] is: 1.0 μg/kg IP, 90 min, vs vehicle.
Setting [8] is: daily IP 7 days, CLAV 100 ng/kg, CDP 10 mg/kg, vs vehicle.

Turning to `CO[C@@]1(NC(=O)C(C(=O)O)c2ccc(O)cc2)C(=O)N2C(C(=O)O)=C(CSc3nnnn3C)CO[C@@H]21` (stereo partly drawn) [Moxalactam, 7-β-[2-carboxy-2-(4-hydroxyphenyl)acetamido]-7α-methoxy-3-[[(1-methyl-1H-tetrazol-5-yl)thio]methyl]-1-oxa-1-dethia-3-cephem-4-carboxylic acid], the anxiolytic action entry in series [1] (i.p. at 50 micrograms/kg, rats) was “acts as an anxiolytic in rats”. The spatial learning result in series [2] (i.p. at 50 micrograms/kg, rats) was “enhances spatial learning in rats”.

Regarding `O=C(O)[C@H]1/C(=C/CO)O[C@@H]2CC(=O)N21` [CLAV, clavulanic acid], the “activity in the plus-maze (summary)” value in series [1] (1 μg/kg) is recorded as “anxiolytic activity”. In series [1] (setting [7]), the “latency to enter the dark (closed arm)” value is on record as “stayed in the starting open light position longer”, the open arm entries result is “increased movement into the lighted open arms” and the “time spent in the open arm” value is given as “significantly increased”. The open arm entries result in series [1] (daily IP 7 days, CLAV 100 ng/kg, CDP 10 mg/kg) is recorded as “no significant difference between treatments”. Moreover, in series [1] (setting [8]), the “latency to enter the dark closed arms” value is recorded as “significantly greater” and the “time spent exposed to light in the open arms” value is “significantly greater”. In addition, the “open field activity (quadrants traversed in 1 min)” value in series [3] is listed as “no significant differences”. The “path length to find the platform” value in series [2] (1.0 μg/kg, Day 1, vs vehicle) was “traveled a much shorter distance”. The “percentage of time spent in each quadrant vs vehicle” value in series [2] (1.0 μg/kg, any quadrant on any day) is “no significant difference between treatments”. Further, the “latency to find the platform, main effect” value in series [2] (1.0 μg/kg, one hr before testing, 4 days) was “no main effect for drug treatment”. Besides, in series [2] (1.0 μg/kg, trend towards significance), the “latency to find the platform on Days 1 and 4” value was “shorter latencies”. Further, the “learning and memory (summary)” value in series [2] (spatial and cue navigation) is “do not show any loss in learning and memory”. Further, the “effect on stress release of cortisol (summary)” value in series [4] is on record as “no ostensible effect on the release of cortisol”. Moreover, the “blood level of cortisol vs untreated, non-stressed control” value in series [4] (60 min, novel cage 5 min) is “more than twice the blood level of cortisol”. Also, the “inhibition of gram negative beta-lactamase enzymes” value in series [5] is 15 to 34 nM. For the same molecule, the “adverse reactions or contraindications” value in series [6] is “no reported adverse reactions or contraindications”.
